Key:
[1] = system: contusion injuries to the spinal cord; test: Behavioral analysis of motor function after spinal cord contusion injury; assay type: in vivo, Long Evans rats; conditions: rats
Procedure: Experiments were initiated with behavioral analysis of rats receiving contusion injuries to the spinal cord, which is one of the most widely studied of all experimental models of traumatic injury. 8-10 week old Long Evans rats (female) underwent laminectomy at thoracic vertebrae 9 and a 200 kilodyne impact was delivered to the spinal cord using an the Infinite Horizons impactor. Animals were allowed to recover on a heated pad and then treatment was started 24 hours after surgery in order to determine whether a clinically useful window of opportunity for initiation of treatment exists for use of this intervention. Animals received 1 mg/kg 4-AP twice a day for seven days, then received 1 mg/kg 4-AP […] for the following seven days. After two weeks, the animals were taken off 4-AP entirely and allowed to continue for 2 weeks to test for stability of recovery.
FIGS. 1-4 provide evidence of enhanced recovery of a variety of aspects of motor function. […] Of particular interest were observations that when rats were switched to once-a-day administration of 4-AP and all behavioral analyses were conducted at a time point when the 4-AP half-life in rats predicts that levels in vivo were far below those necessary to observe any effects on motor function, recovery of function was still seen at a time when active levels of 4-AP would not have been present. […] FIG. 2 provides information on the speed of the paw during its swing movement (i.e., stride length/swing time). […] FIG. 3 provides information on the distance between the outer toes (i.e., toe spread), a sensitive indicator of normal motor function in the foot itself. […] In contrast, rats treated with 4-AP show normal behavior beginning 10 days post-injury, and this behavior is maintained when drug treatment ends at day 14. FIG. 4 provides information on the length of the foot print, a sensitive indicator of normal motor function in the foot itself. […] In contrast, rats treated with 4-AP show normal behavior beginning 10 days post-injury, and this behavior is maintained when drug treatment ends at day 14. All improvements were durable when treatment was stopped at 2 weeks post-injury.

[2] = system: Sox 9; test: Sox 9 immunofluorescence in spinal cord sections after contusion injury; assay type: in vivo; conditions: rats with contusion injuries to the spinal cord, versus control
Description: FIG. 5A and FIG. 5B are images illustrating a section of control (FIG. 5A) and 4-AP (FIG. 5B) treated animals labeled with anti-Sox 9 (bright spots) and DAPI (darker grey). Arrows highlight the cells that were used to define the baseline threshold for Sox 9 immunofluorescence. Size bar represents 20 μm. FIG. 5C is a graph showing quantification of FIG. 5A and FIG. 5B using the threshold shown in A as baseline. N=3, *p=0.045 t-test.
The ability of daily 4-AP administration to provide benefit at the tissue level was investigated, leading to the wholly unexpected discovery of effects of 4-AP that are relevant to traumatic injuries in a wide range of tissues. The first such observation came from examination of the expression of Sox 9, a transcription factor that is expressed in a wide range of tissues of the nervous system, other excitable tissues and tissues that are not considered to be excitable (including, for example, pancreas, lung, chondrocytes, cartilage, liver, breast, prostate, colorectal, intestine and testis). Among other roles, Sox 9 controls production and expression of chondroitin sulfate proteoglycan, a critical component of scar in many different tissues. […]

[3] = system: motor neurons; test: Count of large NeuN+ putative motor neurons in spinal cord 28 days after injury; assay type: in vivo; conditions: rats, 28 days after spinal cord injury; large NeuN+ cells, ventral side of the cord
Description: FIGS. 8A-8C show the rescue of motor neurons by administration of 4-AP in acute traumatic injury to the spinal cord of the central nervous system. Another example of an unanticipated ability of the administration of 4-AP to provide benefit in acute traumatic injury was obtained by examining the number of motor neurons present in spinal cords of rats analyzed 28 days after injury, as in Example 1. Tissue sections were labeled with antibodies to the NeuN antigen, which is a marker of all neuronal populations. Due to the size and location of these neurons, they can only be motor neurons. Large neurons on the ventral side of the cord were then counted, in regions similarly distal or proximal to the lesion site. […] FIGS. 8B and 8C are graphs showing quantification of large NeuN+ cells in 1 mm^3 region proximal (p=0.06) and distal (p=0.04) to the lesion edge in 4-AP and control sections. […]
Rescue of motor neurons by administration of 4-AP in acute traumatic injury to the spinal cord of the central nervous system. Another example of an unexpected ability of the administration of 4-AP to provide benefit in acute traumatic injury was obtained by examining the number of motor neurons present in spinal cords of rats analyzed 28 days after injury, as in Example 1. […] Large neurons on the ventral side of the cord were then counted, in regions similarly distal or proximal to the lesion site.

[4] = system: skeletal muscle atrophy; test: Skeletal muscle atrophy after sciatic nerve crush injury; assay type: in vivo, mouse
Description: FIGS. 10A-10F show the rescue of skeletal muscle from atrophy induced by crush injury to the sciatic nerve by daily administration of clinically relevant dosages of 4-AP.
These stem cells are believed to play roles in preventing and/or repairing muscle atrophy.
In particular, 4-AP was applied as a means of preventing skeletal muscle atrophy following damage to the nerve innervating muscles of limb, as illustrated in FIG. 10. In these experiments, the sciatic nerve of the mouse was crushed in such a manner that not all axons were severed. In these injuries, skeletal muscle atrophy is a significant consequence, just as it is in patients with similar injuries. This type of injury can be a problem for many reasons, including the fact that if atrophy is not stopped or reversed within a relatively short period of time, the damage done may become irreversible.

[5] = spinal cord contusion, 1 mg/kg 4-AP for 14 days, maintained after treatment ends at day 14
[6] = mouse, sciatic nerve crush injury

## Nc1ccncc1 [4-AP, 4-aminopyridine]
[1]; 200 kilodyne contusion at thoracic vertebrae 9, 1 mg/kg 4-AP twice a day for seven days then seven further days, started 24 hours after surgery
  Basso, Beattie and Bresnahan (BBB) scores, recovery versus placebo (saline): significant improvement over placebo (saline) treated rats as early as 3 days after treatment
[1]; [5]
  length of the foot print: normal behavior beginning: 10 days post-injury
  toe spread (distance between the outer toes): normal behavior beginning: 10 days post-injury
[1]; spinal cord contusion, 1 mg/kg 4-AP for 14 days, normal defined by sham surgery group, maintained after treatment ends at day 14
  return to normal swing speed (stride length/swing time): ≤ 10 days post-injury
[1]; spinal cord contusion, 1 mg/kg 4-AP for 14 days, through the rest of the 28 days of analysis
  motor function after treatment was stopped 14 days after injury: durable improvements in motor function
[2]
  expression of Sox9: greatly decrease the expression of Sox9
[3]
  number of motor neurons in regions distal to the injury: clearly significant increase in the number of motor neurons
  number of motor neurons in regions proximal to the injury: very similar degree of increase in motor neurons
[4]; both at 7 days and 14 days post nerve crush injury
  numbers of Pax7+ muscle stem cells: increased the numbers of Pax7+ cells
[4]; mice, 7 days after nerve crush injury, daily 4-AP
  muscle strength: greater muscle strength as compared with saline-treated mice
[4]; [6]
  expression of MuRF-1 in muscle: decreases expression of MuRF-1
  expression of myogenin in muscle: decreases expression of myogenin
[4]; mouse, sciatic nerve crush injury, daily 4-AP
  muscle atrophy judged by cross-sectional size of muscle: decreases muscle atrophy

From patent US20180271847A1, “TREATMENT OF ACUTE TRAUMATIC INJURY” (priority 2015, published 2018)
